# Data as given in patent US20240181000A1, “LGG-DERIVED PEPTIDES AND METHODS OF USE THEREOF” (Ohio State Innovation Foundation, priority 2021, published 2024).
# Marks after values point to notes of the source that are not given here. No end group written: not given here.
# Key:
# APEC O78 membrane = test: Bacterial cytological profiling (confocal microscopy); assay type: cell-based, E. coli; conditions: 5×MIC, 3 h
# Description: Bacterial cytological profiling (BCP): To identify the mode of action (MOA) of peptides (P1, P2, and P3), BCP approach was used as described previously. […] Following incubation, cultures were centrifuged, and bacteria was resuspended in 100 μL sterile water. FM4-64 (1 μg/mL; Invitrogen™ Molecular Probes™) and Syto-9 (5 μM; Invitrogen™ Molecular Probes™) stains were added to the bacterial cultures and incubated at 4° C. for 45 mins with shaking at 150 rpm. The stained bacteria were centrifuged, pelleted, and resuspended in 10 μL sterile water. The bacterial suspension (3 μL) was transferred onto glass slides containing thin layer of 1.2% agar and 20% LB media for confocal microscopy. Microscopy was performed using Leica TCS SP6 confocal scanning microscope (FM4-64-excitation 515 nm and emission 640 nm: Syto-9-excitation 485 nm and emission 498 nm) at Molecular and Cellular Imaging Center (MCIC), The Ohio State University (mcic.osu.edu/microscopy). Untreated bacterial culture was used as control.
# cecal microbiota = test: Cecal microbiome analysis (peptides, APEC infected); assay type: in vivo, chickens
# Description: Cecal microbiome analysis: To investigate the impact of peptides (P1, P2, and P3) treatment (50 mg/kg and 100 mg/kg) on cecal microbiome of chickens, 16S rRNA based metagenomic study was conducted as previously described. DNA was extracted from 0.2 g of cecal contents using PureLink™ Microbiome DNA Purification Kit (Thermofisher Scientific) and treated with RNase A (2 μL of 100 mg/mL solution per sample; Qiagen) to remove the RNA. DNA quantity and quality were measured using NanoDrop 2000c Spectrophotometer (Thermo Fisher Scientific). The extracted DNA samples were subjected to 16S rRNA V4-V5 sequencing at molecular and cellular imaging center (MCIC), Ohio Agricultural Research and Development Center (OARDC) (mcic.osu.edu/genomics/illumina-sequencing). Amplicon libraries were prepared using IFU KAPA HiFi HotStart ReadyMixPCR Kit (Roche) and PCR clean-up was performed using Agencourt AMPure XP beads (BECKMAN COULTER Life Sciences). Nextera XT DNA Library Preparation Kit (Illumina) was used to generate Illumina library and sequencing was performed using Illumina MiSeq platform generating paired end 300-bp reads.
# For the metagenomic analysis, QIIME (Quantitative Insights into Microbial Ecology) 2 bioinformatics platform (qiime2.org/) was used. Quality control of the raw reads was performed using FastQC 0.11.8 (Babraham Bioinformatics). Trimmomatic-0.33 was used to trim the adaptor and other illumina-specific sequences (www.usadellab.org/cms/?page=trimmomatic). The trimmed sequences (fastq.gz) were then imported into the QIIME 2 as a manifest file format (PairedEndManifestPhred33V2). The feature table construction and additional filtering of the sequences was performed using DADA2. The taxonomic analysis was performed using Naive Bayes classifiers trained on the Silva 132 99% OTUs (silva-132-99-nb-classifier.qza) database. The phylogenetic diversity was analyzed using align-to-tree-mafft-fasttree pipeline and alpha ([…]) were analyzed using core-metrics-phylogenetic pipeline (docs.qiime2.org/2019.7/tutorials/moving-pictures/). The statistical difference (P<0.05) in the taxonomic composition between the peptides treated, PC, and NC groups was determined using Mann-Whitney U test. The alpha and beta diversity were analyzed using Kruskal-Wallis and PERMANOVA tests (P<0.05), respectively.
# [1] = test system: Salmonella enterica subsp. enterica serovar Enteritidis (SE); assay type: cell-based; conditions: No treatment
# Description: MIC was determined by selecting peptide concentration at which there is no increased growth (no increase in OD), given indication of no ST growth. An independent repeat experiment was conducted.
# Heat and protease tolerance of peptides: P1, P2, and P4 were heated for 6 minutes at 86° C. or treated with protease proteinase K, 200 μg/mL at 50° C. for 30 minutes. After which, the treated and/or heated peptides at their respective MICs were evaluated in the inhibition assay with Salmonella. The protocol from above was repeated in the Tecan with the same controls.
# To analyze the perceived efficacy of arginine and lysine substitutes reported in previous studies, specific amino acid residues in P1 and P2 were replaced with lysine or arginine to test if the alliterations enhanced anti-Salmonella (ST and SE) activity. The MICs of the arginine or lysine substituted peptides ([…] (SEQ ID NO:37), […] (SEQ ID NO:38), […] (SEQ ID NO:39), KDENK (SEQ ID NO:41), PDEKK (SEQ ID NO:42), KDEKK (SEQ ID NO:43), KHTAPK (SEQ ID NO:45)) were determined as described early. Two independent experiments were conducted to ensure accuracy.
substance,measurement,setting,value
"PDENK [Peptide P2, PDENK]",APEC membrane in confocal microscopy (FM4-64/SYTO-9),APEC O78 membrane,no or minimally visible APEC membrane
same,Beta-diversity (weighted unifrac) vs NC chickens,cecal microbiota; 50 mg/kg,similar
same,Beta-diversity (weighted unifrac) vs NC chickens,cecal microbiota; 100 mg/kg,significantly (P<0.01) different
same,Relative abundance Clostridia,"cecal microbiota; class, 100 mg/kg",64.92%
same,Relative abundance Lachnospiraceae,"cecal microbiota; family, 100 mg/kg",56.10%
same,Relative abundance Lactobacillaceae,"cecal microbiota; family, 100 mg/kg",1.38%
same,Relative abundance Leuconostocaceae,"cecal microbiota; family, 100 mg/kg, from 0.31%",0%
same,Relative abundance Clostridiaceae 1,"cecal microbiota; family, 100 mg/kg, from 0.53%",0%
same,Relative abundance (%) Anaerotruncus,"cecal microbiota; genus, 50-mg/kg dose",0.00%
same,Relative abundance (%) Bacteroides,"cecal microbiota; genus, 50-mg/kg dose",55.87%
same,Relative abundance (%) Clostridioides,"cecal microbiota; genus, 50-mg/kg dose",0.00%
same,Relative abundance (%) Clostridium sensu stricto 1,"cecal microbiota; genus, 50-mg/kg dose",0.00%
same,Relative abundance (%) Enterococcus,"cecal microbiota; genus, 50-mg/kg dose",1.24%
same,Relative abundance (%) Erysipelatoclostridium,"cecal microbiota; genus, 50-mg/kg dose",3.84^a %
same,Relative abundance (%) Escherichia-Shigella,"cecal microbiota; genus, 50-mg/kg dose",4.95%
same,Relative abundance (%) Flavonifractor,"cecal microbiota; genus, 50-mg/kg dose",0.68%
same,Relative abundance (%) Lachnospiraceae (uncultured),"cecal microbiota; genus, 50-mg/kg dose",2.30%
same,Relative abundance (%) Oscillibacter,"cecal microbiota; genus, 50-mg/kg dose",0.00%
same,Relative abundance (%) Pediococcus,"cecal microbiota; genus, 50-mg/kg dose",0.74%
same,Relative abundance (%) Ruminiclostridium 5,"cecal microbiota; genus, 50-mg/kg dose",0.23%
same,Relative abundance (%) Ruminiclostridium 9,"cecal microbiota; genus, 50-mg/kg dose",1.25%
same,Relative abundance (%) Ruminococcus gnavus group,"cecal microbiota; genus, 50-mg/kg dose",0.00%
same,Relative abundance (%) Ruminococcus torques group,"cecal microbiota; genus, 50-mg/kg dose",9.83%
same,Relative Abundance (%) Blautia,"cecal microbiota; genus, 100-mg/kg dose",0.00%
same,Relative Abundance (%) Caproiciproducens,"cecal microbiota; genus, 100-mg/kg dose",0.00%
same,Relative Abundance (%) Lactobacillus,"cecal microbiota; genus, 100-mg/kg dose",0.00%
same,Relative Abundance (%) Sellimonas,"cecal microbiota; genus, 100-mg/kg dose",0.00^b %
same,Relative Abundance (%) [Clostridium] innocuum group,"cecal microbiota; genus, 100-mg/kg dose",0.00^b %
same,Relative Abundance (%) [Eubacterium] coprostanoligenes group,"cecal microbiota; genus, 100-mg/kg dose",0.00%
same,Relative abundance (%) Anaerotruncus,"cecal microbiota; genus, 100-mg/kg dose",0.00%
same,Relative abundance (%) Bacillus,"cecal microbiota; genus, 100-mg/kg dose",0.37%
same,Relative abundance (%) Butyricicoccus,"cecal microbiota; genus, 100-mg/kg dose",1.53%
same,Relative abundance (%) Clostridiales vadin BB60 group,"cecal microbiota; genus, 100-mg/kg dose",0.00%
same,Relative abundance (%) Clostridioides,"cecal microbiota; genus, 100-mg/kg dose",0.00%
same,Relative abundance (%) Clostridium sensu stricto 1,"cecal microbiota; genus, 100-mg/kg dose",0.00%
same,Relative abundance (%) Enterococcus,"cecal microbiota; genus, 100-mg/kg dose",2.01%
same,Relative abundance (%) Erysipelatoclostridium,"cecal microbiota; genus, 100-mg/kg dose",14.71^b %
same,Relative abundance (%) Escherichia-Shigella,"cecal microbiota; genus, 100-mg/kg dose",13.77%
same,Relative abundance (%) Flavonifractor,"cecal microbiota; genus, 100-mg/kg dose",0.68^b %
same,Relative abundance (%) Lachnospiraceae (uncultured),"cecal microbiota; genus, 100-mg/kg dose",0.73%
same,Relative abundance (%) Lactococcus,"cecal microbiota; genus, 100-mg/kg dose",0.40%
same,Relative abundance (%) Oscillibacter,"cecal microbiota; genus, 100-mg/kg dose",0.13%
same,Relative abundance (%) Paenibacillus,"cecal microbiota; genus, 100-mg/kg dose",0.00%
same,Relative abundance (%) Pediococcus,"cecal microbiota; genus, 100-mg/kg dose",1.38^b %
same,Relative abundance (%) Ruminiclostridium 5,"cecal microbiota; genus, 100-mg/kg dose",0.28%
same,Relative abundance (%) Ruminiclostridium 9,"cecal microbiota; genus, 100-mg/kg dose",0.78%
same,Relative abundance (%) Ruminococcacede UCG-005,"cecal microbiota; genus, 100-mg/kg dose",2.19%
same,Relative abundance (%) Ruminococcus torques group,"cecal microbiota; genus, 100-mg/kg dose",10.37%
same,Relative abundance (%) UBA1819,"cecal microbiota; genus, 100-mg/kg dose",0.68%
same,Relative abundance (%) Weissella,"cecal microbiota; genus, 100-mg/kg dose",2.43^a %
same,MIC against SE,[1],15 mM
